Results on eight compounds are retold here after DBAASP.

Holding throughout (test): ≥ marks a high value that may be exact or a test limit, other limits are often not marked, values filed in µg/mL are converted to µM
The subject of assay [1] is Candida albicans ATCC 1023.
For assay [2], the system named is Candida albicans.
Assay [3] relates to Staphylococcus aureus ATCC 25923.
The subject of assay [4] is Escherichia coli ATCC 25922.
The subject of assay [5] is Pseudomonas aeruginosa ATCC 27853.
The subject of assay [6] is Bacillus megaterium ATCC 10778.
In assay [7] the test system is Candida albicans MDM8.
Assay [8] deals with Micrococcus luteus A270.
Assay [9] deals with Serratia marcescens ATCC 4112.
The test system of assay [10] is Candida tropicalis IOC 4560.
In assay [11] the test system is Enterobacter cloacae beta-12.
The subject of assay [12] is Escherichia coli SBS 363.
In assay [13] the test system is Cryptococcus neoformans.
The subject of assay [14] is Aspergillus niger.
For assay [15], the system named is Penicillium expansum.
Assay [16] deals with Corynebacterium glutamicum ATCC 13032.
Assay [17] deals with Staphylococcus aureus ATCC 9144.
Assay [18] deals with Candida albicans ATCC 10231.
Assay [19] relates to Aureobasidium pullulans.
The subject of assay [20] is Acinetobacter baumannii.
The subject of assay [21] is Escherichia coli BL21.
In assay [22] the test system is Staphylococcus aureus ATCC 12600.
Assay [23] deals with Staphylococcus aureus MR.
Assay [24] relates to Klebsiella pneumoniae ATCC 13883.
The test system of assay [25] is Enterobacter cloacae.
Assay [26] deals with Escherichia coli KpC+001812446.
The test system of assay [27] is Pseudomonas aeruginosa PA14.
Assay [28] relates to Pseudomonas aeruginosa PAO1.
Assay [29] relates to Klebsiella pneumoniae KpC+001825971.
Assay [30] has as its system Escherichia coli ESBL 4.
Assay [31] has as its system Escherichia coli ATCC 43827.
The test system of assay [32] is Escherichia coli ATCC 11775.
In assay [33] the test system is Escherichia coli ATCC 35218.
Assay [34] concerns Escherichia coli ESBL.
Assay [35] relates to Pseudomonas aeruginosa E411-17.
Assay [36] deals with Klebsiella pneumoniae E406-17.
Assay [37] relates to Staphylococcus aureus M838-17.
Assay [38] relates to Escherichia coli.
Assay [39] has as its system Candida albicans ATCC 24433.
Assay [40] concerns Staphylococcus aureus.
Assay [41] concerns Trichophyton rubrum ATCC 28189.
Assay [42] deals with Candida parapsilosis ATCC 22019.

SMILES strings stand for the structures. ≈ marks a conversion by molar mass, not a printed value.

As to `CC[C@H](C)[C@H](NC(=O)CN)C(=O)N[C@@H](CC(C)C)C(=O)N[C@@H](CC(=O)O)C(=O)N[C@@H](C)C(=O)N[C@H](C(=O)N[C@@H](CCCCN)C(=O)N[C@@H](C)C(=O)N[C@H](C(=O)N[C@@H](C)C(=O)N[C@@H](CCCCN)C(=O)N[C@@H](C)C(=O)N[C@@H](C)C(=O)NCC(N)=O)[C@@H](C)CC)[C@@H](C)CC` [GILDAIKAIAKAAG], the MIC in assay [1] is at least 195 µM; in [2], 195 µM (≈ 256 µg/mL); in assay [3], 6.1 µM (≈ 7.99 µg/mL); in assay [4], 24.4 µM (≈ 32 µg/mL); in assay [5] it was 48.8 µM (≈ 64 µg/mL).

In the case of `CC(C)C[C@H](NC(=O)CN)C(=O)NCC(=O)N[C@@H](C)C(=O)N[C@@H](CC(C)C)C(=O)N[C@@H](Cc1c[nH]c2ccccc12)C(=O)N[C@@H](CC(N)=O)C(=O)N[C@H](C(=O)N[C@@H](C)C(=O)N[C@@H](CCCCN)C(=O)N[C@@H](CO)C(=O)N[C@H](C(=O)N[C@@H](Cc1ccccc1)C(N)=O)C(C)C)C(C)C` [GLGALWNVAKSVF], the MIC in assay [6] is 3.1 µM (≈ 4.22 µg/mL); in [7], 25 µM (≈ 34 µg/mL); in assay [8], 0.8 µM (≈ 1.09 µg/mL); in assay [9], 0.8 µM (≈ 1.09 µg/mL); in [10], 25 µM (≈ 34 µg/mL); in [11], at least 50 µM. Also, the results for the MIC in assay [12] and in assay [5] were at least 50 µM and above 50 µM, respectively.

Consider `CSCC[C@H](NC(=O)CNC(=O)[C@H](CC(C)C)NC(=O)[C@H](Cc1ccccc1)NC(=O)CNC(=O)[C@H](CO)NC(=O)[C@@H]1CCCN1C(=O)CN)C(=O)N[C@@H](CCCN=C(N)N)C(=O)O` [GPSGFLGMR], for which the MIC was at least 128 µM in [13]; at least 128 µM in assay [8]; at least 128 µM in assay [14]; at least 128 µM in assay [15]; at least 100 µM in [12]; 64 µM (≈ 58.9 µg/mL) in assay [5].

For the compound `CC(C)[C@H](NC(=O)[C@H](CCCCN)NC(=O)[C@H](C)NC(=O)[C@@H](NC(=O)[C@@H](NC(=O)[C@H](CCCN=C(N)N)NC(=O)[C@H](CCCN=C(N)N)NC(=O)[C@H](Cc1c[nH]c2ccccc12)NC(=O)[C@H](Cc1c[nH]c2ccccc12)NC(=O)CN)[C@@H](C)O)C(C)C)C(=O)N[C@@H](CCCN=C(N)N)C(=O)N[C@@H](C)C(N)=O` [GWWRRTVAKVRA], the MIC in assay [16] was 0.8 µM (≈ 1.19 µg/mL); in assay [17], at least 50 µM; in assay [18], 25 µM (≈ 37.1 µg/mL); in assay [19], at least 50 µM; in [4], 6.3 µM (≈ 9.35 µg/mL); in assay [5] it was 6.3 µM (≈ 9.35 µg/mL).

For `CC[C@H](C)[C@H](N)C(=O)N[C@@H](CC(N)=O)C(=O)N[C@@H](CC(C)C)C(=O)N[C@@H](CCCCN)C(=O)N[C@@H](CCCCN)C(=O)N[C@@H](CC(C)C)C(=O)N[C@@H](C)C(=O)N[C@@H](C)C(=O)N[C@@H](CCCN=C(N)N)C(=O)N[C@H](C(=O)N[C@@H](CCCCN)C(=O)N[C@@H](CCCCN)C(=O)N[C@@H](CCCCN)C(=O)N[C@H](C(N)=O)[C@@H](C)CC)[C@@H](C)CC` [INLKKLAARIKKKI], the MIC in [20] is at least 32 µM; in assay [21], 2 µM (≈ 3.27 µg/mL); in [22] it was 4 µM (≈ 6.54 µg/mL); in assay [23], 8 µM (≈ 13.1 µg/mL); in assay [24], at least 32 µM; in assay [3] it was 8 µM (≈ 13.1 µg/mL). For the same compound, the minimal inhibitory concentration (MIC) in assay [4] is 4 µM (≈ 6.54 µg/mL); in assay [25] it was at least 32 µM; in [26] it was 8 µM (≈ 13.1 µg/mL); in assay [27] it was 4 µM (≈ 6.54 µg/mL); in assay [28], 4 µM (≈ 6.54 µg/mL); in assay [29], at least 32 µM.

Consider `CC[C@H](C)[C@H](NC(=O)[C@H](Cc1ccc(O)cc1)NC(=O)[C@H](CCC(N)=O)NC(=O)[C@H](CC(C)C)NC(=O)[C@H](C)NC(=O)[C@H](CCCCN)NC(=O)[C@H](CCCCN)NC(=O)[C@H](CCSC)NC(=O)[C@H](CCCCN)NC(=O)[C@@H](N)CCCCN)C(=O)N[C@@H](CCCCN)C(=O)N[C@@H](CC(C)C)C(=O)N[C@@H](CC(C)C)C(=O)N[C@@H](CCCCN)C(N)=O` [KKMKKALQYIKLLK], for which the MIC was at least 100 µM in assay [30]; 25 µM (≈ 43.3 µg/mL) in assay [31]; at least 100 µM in [32]; 25 µM (≈ 43.3 µg/mL) in assay [33]; 50 µM (≈ 86.6 µg/mL) in [4]; 25 µM (≈ 43.3 µg/mL) in assay [34]. Further, the MIC in [5] was above 100 µM.

On to `CC(C)C[C@H](NC(=O)[C@H](Cc1c[nH]c2ccccc12)NC(=O)[C@H](Cc1c[nH]c2ccccc12)NC(=O)[C@H](Cc1c[nH]c2ccccc12)NC(=O)[C@H](Cc1c[nH]c2ccccc12)NC(=O)[C@H](CCCN=C(N)N)NC(=O)[C@H](CCCN=C(N)N)NC(=O)[C@@H](N)CCCN=C(N)N)C(N)=O` [RRRWWWWL], for which the figures for the MIC in assay [35], in [36] and in assay [37] were 6.25 µM (≈ 8.4 µg/mL), 6.25 µM (≈ 8.4 µg/mL) and 3.1 µM (≈ 4.17 µg/mL), respectively.

`CC[C@H](C)[C@H](NC(=O)[C@H](CC(C)C)NC(=O)[C@H](CCC(N)=O)NC(=O)[C@H](CO)NC(=O)[C@H](CCCN=C(N)N)NC(=O)[C@@H](N)CO)C(=O)N[C@H](C(=O)N[C@@H](Cc1cnc[nH]1)C(=O)N[C@@H](CCC(N)=O)C(=O)N[C@@H](CCCN=C(N)N)C(=O)N[C@@H](CC(C)C)C(=O)N[C@@H](Cc1ccccc1)C(N)=O)C(C)C` [SRSQLIVHQRLF]: the MIC was above 270 µM in [38]; at least 270 µM in assay [39]; above 270 µM in assay [40]; at least 270 µM in assay [41]; at least 270 µM in assay [42].
